The text below walks through data of patent publication US8350065B2, “5,6-dimethyl xanthone-4-acetic acid derivatives and method of preparing the same” (Grand Pharma (China) Co., Ltd., priority 2008, dated 2013).

For the assay, the system named is Clone No. 38 tumor. The assay can be described thus: Anti-tumor effect by short-term tissue assay in tumor-bearing mice (titled cytotoxic activity). In kind it is in vivo. To be noted: mice with Clone No. 38 tumor; for OD (minimum dose of brine injection administered by peritoneal injection and causing activity): peritoneal injection in brine, dose raised in 1.5-fold steps to maximum tolerated dose; for Activity (necrosis of tumor cross section): peritoneal injection, short-term tissue assay. The method, then:
Cytotoxic activity of the compounds represented by formula (I) was measured by the following method.
Clone No. 38 tumor was obtained from Mason Research Inc. and injected into experimental mice. […] Each dosage level was measured independently at least two times (commonly, three times). For each measurement, each group had five mice. The anti-tumor effect of the compounds was measured through short-term tissue assay.
OD refers to the minimum dose (mg/Kg) of brine injection administered by peritoneal injection and causing activity; ++ refers to >90% of cross section is necrotic.

As for `Cc1cc(C)c2c(=O)c3cccc(CC(=O)O)c3oc2c1C` [NO 4, 5,6,8-trimethylxanthone-4-acetic acid], the “OD (minimum dose of brine injection administered by peritoneal injection and causing activity)” value worked out at 30 mg/kg; the “Activity (necrosis of tumor cross section)” value was “++ (>90% of cross section is necrotic)”.
The matching figures for `Cc1cc(CC(=O)O)c2oc3c(C)c(C)ccc3c(=O)c2c1` [NO 2, 2,5,6-trimethyl xanthone-4-acetic acid]: 25 mg/kg and “++ (>90% of cross section is necrotic)”.
Take `Cc1ccc2c(=O)c3cccc(CC(=O)O)c3oc2c1C` [NO 1, 5,6-dimethyl xanthone-4-acetic acid]: the “OD (minimum dose of brine injection administered by peritoneal injection and causing activity)” value was 30 mg/kg; the “Activity (necrosis of tumor cross section)” value is given as “++ (>90% of cross section is necrotic)”.
The like results for `Cc1cc2c(=O)c3cccc(CC(=O)O)c3oc2c(C)c1C` [NO 3, 5,6,7-trimethylxanthone-4-acetic acid] were, in that order, 30 mg/kg and “++ (>90% of cross section is necrotic)”.
